Laboratory results published in patent US10717716B2, “1,3,4-oxadiazole derivative compounds as histone deacetylase 6 inhibitor, and the pharmaceutical composition comprising the same” (Chong Kun Dang Pharmaceutical Corp., priority 2015, dated 2020).

Target: T1, human recombinant HDAC6 (Homo sapiens, UniProt Q9UBN7)
T1 construct: purchased Calbiochem 382180
T1 sequence (Q9UBN7 1-1215): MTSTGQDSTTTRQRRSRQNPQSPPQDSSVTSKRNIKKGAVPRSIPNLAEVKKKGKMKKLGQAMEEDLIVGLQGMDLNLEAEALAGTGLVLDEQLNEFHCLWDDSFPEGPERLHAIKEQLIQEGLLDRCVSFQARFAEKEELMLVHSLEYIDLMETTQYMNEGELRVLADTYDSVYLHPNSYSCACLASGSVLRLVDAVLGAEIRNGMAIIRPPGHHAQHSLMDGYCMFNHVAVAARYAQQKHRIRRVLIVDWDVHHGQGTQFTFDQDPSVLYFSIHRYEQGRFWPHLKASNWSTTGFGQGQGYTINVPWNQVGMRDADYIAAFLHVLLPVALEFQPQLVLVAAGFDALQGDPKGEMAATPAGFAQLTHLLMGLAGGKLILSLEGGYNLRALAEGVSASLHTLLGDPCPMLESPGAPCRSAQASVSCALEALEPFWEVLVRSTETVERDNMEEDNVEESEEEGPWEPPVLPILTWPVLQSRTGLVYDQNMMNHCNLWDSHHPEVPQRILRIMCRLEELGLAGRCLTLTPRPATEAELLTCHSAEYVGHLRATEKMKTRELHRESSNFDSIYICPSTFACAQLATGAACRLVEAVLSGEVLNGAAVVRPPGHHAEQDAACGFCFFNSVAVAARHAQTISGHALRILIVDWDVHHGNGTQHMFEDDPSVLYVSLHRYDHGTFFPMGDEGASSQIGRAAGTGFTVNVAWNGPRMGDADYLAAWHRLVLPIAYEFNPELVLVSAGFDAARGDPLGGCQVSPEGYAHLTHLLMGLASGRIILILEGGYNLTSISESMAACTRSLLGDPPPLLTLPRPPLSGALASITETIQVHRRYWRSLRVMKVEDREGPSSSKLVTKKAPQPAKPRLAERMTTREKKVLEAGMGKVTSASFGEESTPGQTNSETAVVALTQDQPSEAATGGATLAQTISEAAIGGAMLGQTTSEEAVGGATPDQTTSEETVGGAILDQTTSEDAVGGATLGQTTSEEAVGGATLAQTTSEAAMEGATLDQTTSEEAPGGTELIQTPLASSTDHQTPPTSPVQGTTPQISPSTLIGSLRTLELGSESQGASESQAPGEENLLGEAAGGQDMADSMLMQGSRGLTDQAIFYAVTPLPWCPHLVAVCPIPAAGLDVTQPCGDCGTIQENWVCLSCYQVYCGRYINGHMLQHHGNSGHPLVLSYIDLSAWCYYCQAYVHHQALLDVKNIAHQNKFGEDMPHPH
Assay: HDAC6 enzyme activity inhibition assay (HDAC Fluorimetric Drug Discovery Kit)
Format: biochemical
Details: for HDAC6 selectivity (fold): HDAC6 over HDAC1; for IC50: human recombinant HDAC6, same protocol as HDAC1, read-out: HDAC6
In short: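 Fluorimetric deacetylase assay: 5-fold serial compound dilutions, 0.3 μg recombinant human enzyme (HDAC1 or HDAC6, same protocol), 10 μM Fluor de Lys-SIRT1 substrate, 60 min at 30 °C. Signal developed 30 min, measured at 360/460 nm; IC50 values derived.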

Compound	HDAC6 selectivity (fold)	IC50 [nM]
Cc1nnc(N(Cc2ccc(-c3nnc(C(F)F)o3)cc2F)C(=O)N2CCOCC2)s1 [Compound 21980, N-(4-(5-(difluoromethyl)-1,3,4-oxadiazol-2-yl)-2-fluorobenzyl)-N-(5-methyl-1,3,4-thiadiazol-2-yl)morpholine-4-carboxamide]	10	1030
O=C(NCCN1CCN(c2ccncc2)CC1)N(Cc1ccc(-c2nnc(C(F)F)o2)cc1F)c1ccccc1 [Compound 22009, 1-(4-(5-(Difluoromethyl)-1,3,4-oxadiazol-2-yl)-2-fluorobenzyl)-1-phenyl-3-(2-(4-(pyridin-4-yl)piperazin-1-yl)ethyl)urea]	97	103
Cc1ccc(N(Cc2ccc(-c3nnc(C(F)F)o3)cc2)C(=O)N2CCS(=O)(=O)CC2)cc1 [Compound 21446, N-(4-(5-(difluoromethyl)-1,3,4-oxadiazol-2-yl)benzyl)-N-(p-tolyl)thiomorpholine-4-carboxamide 1,1-dioxide]	115	87
CC(C)(C)OC(=O)N1CCN(C(=O)N(Cc2ccc(-c3nnc(C(F)(F)F)o3)cc2)c2ccccc2)CC1 [Compound 21352, Tert-butyl 4-(phenyl(4-(5-(trifluoromethyl)-1,3,4-oxadiazol-2-yl)benzyl)carbamoyl)piperazine-1-carboxylate]	9	1100
O=C(N1CCN(c2ccccn2)CC1)N(Cc1ccc(-c2nnc(C(F)(F)F)o2)cc1)c1ccccc1 [Compound 21403, N-phenyl-4-(pyridin-2-yl)-N-(4-(5-(trifluoromethyl)-1,3,4-oxadiazol-2-yl)benzyl)piperazine-1-carboxamide]	30	334
Cc1ccc(N(Cc2ccc(-c3nnc(C(F)F)o3)cn2)C(=O)N2CCOCC2)c(F)c1 [Compound 21855, N-((5-(5-(difluoromethyl)-1,3,4-oxadiazol-2-yl)pyridin-2-yl)methyl)-N-(2-fluoro-4-methylphenyl)morpholine-4-carboxamide]	248	40
O=C(N1CCS(=O)(=O)CC1)N(Cc1ccc(-c2nnc(C(F)(F)F)o2)cc1)c1ccccc1F [Compound 21447, N-(2-fluorophenyl)-N-(4-(5-(trifluoromethyl)-1,3,4-oxadiazol-2-yl)benzyl)thiomorpholine-4-carboxamide 1,1-dioxide]	196	51
O=C(N1CCS(=O)(=O)CC1)N(Cc1ccc(-c2nnc(C(F)F)o2)cn1)c1ccc(F)c(Cl)c1 [Compound 21587, N-(3-chloro-4-fluorophenyl)-N-((5-(5-(difluoromethyl)-1,3,4-oxadiazol-2-yl)pyridin-2-yl)methyl)thiomorpholine-4-carboxamide 1,1-dioxide]	909	11
O=C(NCCN1CCN(CCO)CC1)N(Cc1ccc(-c2nnc(C(F)F)o2)cc1F)c1ccccc1 [Compound 21996, 1-(4-(5-(Difluoromethyl)-1,3,4-oxadiazol-2-yl)-2-fluorobenzyl)-3-(2-(4-(2-hydroxyethyl)piperazin-1-yl)ethyl)-1-phenylurea]	108	92
COc1ccc(N(Cc2ccc(-c3nnc(C(F)F)o3)cc2)C(=O)N2CCS(=O)(=O)CC2)cc1 [Compound 21453, N-(4-(5-(difluoromethyl)-1,3,4-oxadiazol-2-yl)benzyl)-N-(4-methoxyphenyl)thiomorpholine-4-carboxamide 1,1-dioxide]	85	117
O=C(N1CCS(=O)(=O)CC1)N(Cc1ccc(-c2nnc(C(F)(F)F)o2)cc1)c1ccccc1C(F)(F)F [Compound 21449, N-(4-(5-(trifluoromethyl)-1,3,4-oxadiazol-2-yl)benzyl)-N-(2-(trifluoromethyl)phenyl)thiomorpholine-4-carboxamide 1,1-dioxide]	7	1530
O=C(N1CCOCC1)N(Cc1ccc(-c2nnc(C(F)(F)F)o2)cc1)c1ncccn1 [Compound 21425, N-(pyrimidin-2-yl)-N-(4-(5-(trifluoromethyl)-1,3,4-oxadiazol-2-yl)benzyl)morpholine-4-carboxamide]	77	130
O=C(N1CCOCC1)N(Cc1ccc(-c2nnc(C(F)(F)F)o2)cc1)c1cccc(C(F)(F)F)n1 [Compound 21408, N-(4-(5-(trifluoromethyl)-1,3,4-oxadiazol-2-yl)benzyl)-N-(6-(trifluoromethyl)pyridin-2-yl)morpholine-4-carboxamide]	14	706
O=C(N1CCN(C2COC2)CC1)N(Cc1ccc(-c2nnc(C(F)F)o2)cc1)c1ccc(Cl)cc1 [Compound 21945, N-(4-Chlorophenyl)-N-(4-(5-(difluoromethyl)-1,3,4-oxadiazol-2-yl)benzyl)-4-(oxetan-3-yl)piperazine-1-carboxamide]	52	193
CC(=O)N1CCCN(CCNC(=O)N(Cc2ccc(-c3nnc(C(F)F)o3)cc2F)c2ccccc2)CC1 [Compound 21999, 3-(2-(4-Acetyl-1,4-diazepan-1-yl)ethyl)-1-(4-(5-(difluoromethyl)-1,3,4-oxadiazol-2-yl)-2-fluorobenzyl)-1-phenylurea]	85	117
O=C(N1CCOCC1)N(Cc1ccc(-c2nnc(C(F)(F)F)o2)cn1)c1ccccc1 [Compound 21336, N-phenyl-N-((5-(5-(trifluoromethyl)-1,3,4-oxadiazol-2-yl)pyridin-2-yl)methyl)morpholine-4-carboxamide]	105	95
CN1CCCN(C(=O)N(Cc2ccc(-c3nnc(C(F)F)o3)cc2F)c2ccccc2)CC1 [Compound 21423, N-(4-(5-(difluoromethyl)-1,3,4-oxadiazol-2-yl)-2-fluorobenzyl)-4-methyl-N-phenyl-1,4-diazepane-1-carboxamide]	377	26.5
O=C(N1CCS(=O)(=O)CC1)N(Cc1ccc(-c2nnc(C(F)(F)F)o2)cc1F)c1ccc(F)c(Cl)c1 [Compound 21530, N-(3-chloro-4-fluorophenyl)-N-(2-fluoro-4-(5-(trifluoromethyl)-1,3,4-oxadiazol-2-yl)benzyl)thiomorpholine-4-carboxamide 1,1-dioxide]	167	60
COc1ccc(N(Cc2ccc(-c3nnc(C(F)F)o3)cn2)C(=O)N2CCS(=O)(=O)CC2)cc1 [Compound 21455, N-((5-(5-(difluoromethyl)-1,3,4-oxadiazol-2-yl)pyridin-2-yl)methyl)-N-(4-methoxyphenyl)thiomorpholine-4-carboxamide 1,1-dioxide]	294	34
O=C(N1CCC2(CC1)CNC2)N(Cc1ccc(-c2nnc(C(F)F)o2)cc1F)c1ccccc1 [Compound 21495, N-(4-(5-(difluoromethyl)-1,3,4-oxadiazol-2-yl)-2-fluorobenzyl)-N-phenyl-2,7-diazaspiro[3.5]nonane-7-carboxamide]	294	34
CN1CCN(C(=O)N(Cc2ccc(-c3nnc(C(F)F)o3)cn2)c2ccc(F)c(Cl)c2)CC1 [Compound 21620, N-(3-chloro-4-fluorophenyl)-N-((5-(5-(difluoromethyl)-1,3,4-oxadiazol-2-yl)pyridin-2-yl)methyl)-4-methylpiperazine-1-carboxamide]	383	26
CCN1CCN(C(=O)N(Cc2ccc(-c3nnc(C(F)F)o3)cc2)c2ccc(F)cc2)CC1 [Compound 21886, N-(4-(5-(Difluoromethyl)-1,3,4-oxadiazol-2-yl)benzyl)-4-ethyl-N-(4-fluorophenyl)piperazine-1-carboxamide]	218	46
